According to US20230272029A1, “CO-AGONISTS AT GLP-1 AND GIP RECEPTORS SUITABLE FOR ORAL DELIVERY” (Novo Nordisk A/S, priority 2020, published 2023):
Marks after values point to notes of the source that are not given here. Starred links: 1 amine or outer side, 2 acyl side, 3 side chain; linkers in the order of their positions; H or OH if unused. Non-standard residues stand in square brackets, D forms with d. Residues, ends and D or L forms follow the SMILES beside them. Groups on a side chain read outwards from the residue. *: point of attachment. C18 diacid = O=C(O)CCCCCCCCCCCCCCCCC(=O)*; γGlu = O=C(O)[C@H](CCC(=O)[*:2])N[*:1]; εLys = N[C@@H](CCCCN[*:1])C(=O)[*:2]; AEEA = NCCOCCOCC(=O)O; Aib = CC(C)(N)C(=O)O

Assay: Pharmacokinetic study in dogs after oral dosing of tablets with SNAC
Assay type: in vivo, Beagle dogs
Details: dog, in vivo, po
Method: The purpose of this example is to determine the half-life and plasma exposure in vivo of the compounds of the present invention after p.o. administration to beagle dogs, i.e. the terminal half-life and concentration of test substance that reaches circulation with time. This is done in a pharmacokinetic (PK) study, where these parameters of the compound in question are determined. By terminal half-life is generally meant the period of time it takes to halve a certain plasma concentration, measured after the initial distribution phase.
The amount of SNAC in the tablet composition was 100-300 mg, the amount of magnesium stearate in the tablet composition was 7.7 mg, and the target amount of each test substance in the tablet composition was 3-4 mg.
Male beagle dogs, 1-7 years of age and weighing 9-17 kg during the study period, were included in the study. The dogs were dosed in a fasting state. The dogs were group housed in pens (12 hours light: 12 hours dark), and fed individually and restrictedly once daily with Royal Canin Medium Adult dog food (Royal Canin Products, China Branch, or Brogaarden A/S, Denmark). The dogs were used for repeated PK studies with a suitable wash-out period between successive dosing. An appropriate acclimatization period was given prior to initiation of the first PK study. All handling, dosing, and blood sampling of the animals were performed by trained and skilled staff. Before the studies, the dogs were fasted overnight and from 0 to 4 hours after dosing. The dogs were restricted to water 1 hour before dosing until 4 hours after dosing, but otherwise had ad libitum access to water during the whole period.
The compositions were administered by a single oral dosing to the dogs in groups of 6-8 dogs. […] The mouth was then closed, and 10 mL of tap water was given by syringe or gavage to facilitate swallowing of the tablet.
For each blood sample time point, approximately 0.8 mL of whole blood was collected in a 1.5 mL EDTA-coated tube, which was gently turned to mix the sample with EDTA. Blood samples were collected in EDTA buffer (8 mM) and then centrifuged at 4° C. and 2000g for 10 minutes. Plasma was pipetted into Micronic tubes on dry ice, and kept at −20° C. or lower until analysis. Blood samples were taken as appropriate, for example from a venflon in the cephalic vein in the front leg for the first 2 hours and then with syringe from the jugular vein for the rest of the time points. The first few drops were allowed to drain from the venflon to avoid heparin saline from the venflon in the sample.
All blood samples were collected into test tubes containing EDTA for stabilisation and kept on ice until centrifugation. Plasma was separated from whole blood by centrifugation and the plasma was stored at −20° C. or lower until analysis.
The plasma was analysed for test substance using LC-MS (Liquid Chromatography-Mass Spectrometry) as known to the person skilled in the art. […] RP-HPLC separation was achieved using a linear gradient of 1:1 acetonitrile/methanol in 1% aqueous formic acid using either: a Phenomenex Onyx Monolithic C18 column (50×2.0 mm) and a flow rate of 0.8 mL/min at 30° C.; or an Agilent Poroshell 120 SB-C18 column (50×2.1 mm, 2.7 μm) at a flow rate of 0.4 mL/min at 60° C. The mass spectrometer was operated in either positive ionization SIM mode or positive ionization PRM mode.
For each individual animal, a plasma concentration-time profile was analysed by a non-compartmental model in Pharsight Phoenix WinNonLin ver. 6.4 software or other relevant software for PK analysis, and the resulting terminal half-life (t1/2), maximum plasma concentration per dose (Cmax/D), time for maximum plasma concentration (tmax), and area under the curve to infinity per dose (AUC/D) were determined. Summary statistics of pharmacokinetic results were presented as median (for tmax), harmonic mean ([…]), or arithmetic mean (Cmax, AUC).

| Structure (SMILES) | Cmax/Dose | AUC/Dose |
| --- | --- | --- |
| CC[C@H](C)[C@H](NC(=O)[C@H](Cc1ccccc1)NC(=O)[C@H](CCC(=O)O)NC(=O)[C@H](Cc1c[nH]cn1)NC(=O)[C@H](C)NC(=O)[C@H](C)NC(=O)[C@H](CCC(N)=O)NC(=O)[C@H](CCCCNC(=O)[C@@H](N)CCCCNC(=O)[C@@H](N)CCCCNC(=O)CC[C@H](NC(=O)CCCCCCCCCCCCCCCCC(=O)O)C(=O)O)NC(=O)[C@H](CCC(=O)O)NC(=O)[C@H](CC(C)C)NC(=O)[C@H](CC(C)C)NC(=O)[C@@H](NC(=O)[C@H](CO)NC(=O)[C@H](Cc1ccc(O)cc1)NC(=O)[C@H](CC(=O)O)NC(=O)[C@H](CO)NC(=O)[C@@H](NC(=O)[C@H](Cc1ccccc1)NC(=O)[C@@H](NC(=O)CNC(=O)[C@H](CCC(=O)O)NC(=O)C(C)(C)NC(=O)[C@@H](N)Cc1ccc(O)cc1)[C@@H](C)O)[C@@H](C)O)[C@@H](C)CC)C(=O)N[C@@H](CC(N)=O)C(=O)N[C@@H](Cc1c[nH]c2ccccc12)C(=O)N[C@@H](CC(C)C)C(=O)N[C@@H](CC(C)C)C(=O)N[C@@H](C)C(=O)NCC(=O)NCC(=O)N1CCC[C@H]1C(=O)N[C@@H](CO)C(=O)N[C@@H](CO)C(=O)NCC(=O)N[C@@H](C)C(=O)N1CCC[C@H]1C(=O)N1CCC[C@H]1C(=O)N1CCC[C@H]1C(=O)N[C@@H](CO)C(=O)O [Compound No. 26] (H-Y[Aib]EGTFTSDYSILLEK([εLys-εLys-γGlu-C18 diacid])QAAHEFINWLLAGGPSSGAPPPS-OH) | 0.49* kg/L |  |
| CC[C@H](C)[C@H](NC(=O)[C@H](Cc1ccccc1)NC(=O)[C@H](CCC(=O)O)NC(=O)[C@H](CCC(N)=O)NC(=O)[C@H](C)NC(=O)[C@H](C)NC(=O)[C@H](CCC(N)=O)NC(=O)[C@H](CCCCNC(=O)[C@@H](N)CCCCNC(=O)[C@@H](N)CCCCNC(=O)CC[C@H](NC(=O)CCCCCCCCCCCCCCCCC(=O)O)C(=O)O)NC(=O)[C@H](CCC(=O)O)NC(=O)[C@H](CC(C)C)NC(=O)[C@H](CC(C)C)NC(=O)[C@@H](NC(=O)[C@H](CO)NC(=O)[C@H](Cc1ccc(O)cc1)NC(=O)[C@H](CC(=O)O)NC(=O)[C@H](CO)NC(=O)[C@@H](NC(=O)[C@H](Cc1ccccc1)NC(=O)[C@@H](NC(=O)CNC(=O)[C@H](CCC(=O)O)NC(=O)C(C)(C)NC(=O)[C@@H](N)Cc1ccc(O)cc1)[C@@H](C)O)[C@@H](C)O)[C@@H](C)CC)C(=O)N[C@@H](CC(N)=O)C(=O)N[C@@H](Cc1c[nH]c2ccccc12)C(=O)N[C@@H](CC(C)C)C(=O)N[C@@H](CC(C)C)C(=O)N[C@@H](C)C(=O)NCC(=O)NCC(=O)N1CCC[C@H]1C(=O)N[C@@H](CO)C(=O)N[C@@H](CO)C(=O)NCC(=O)N[C@@H](C)C(=O)N1CCC[C@H]1C(=O)N1CCC[C@H]1C(=O)N1CCC[C@H]1C(=O)N[C@@H](CO)C(=O)O [Compound No. 24] (H-Y[Aib]EGTFTSDYSILLEK([εLys-εLys-γGlu-C18 diacid])QAAQEFINWLLAGGPSSGAPPPS-OH) | 0.29 kg/L |  |
| CC[C@H](C)[C@H](NC(=O)[C@H](Cc1ccccc1)NC(=O)[C@H](CCC(=O)O)NC(=O)[C@H](CCC(N)=O)NC(=O)[C@H](C)NC(=O)[C@H](C)NC(=O)[C@H](CCC(N)=O)NC(=O)[C@H](CCCCNC(=O)[C@@H](N)CCCCNC(=O)[C@@H](N)CCCCNC(=O)CC[C@H](NC(=O)CCCCCCCCCCCCCCCCC(=O)O)C(=O)O)NC(=O)[C@H](CCC(=O)O)NC(=O)[C@H](CC(C)C)NC(=O)[C@H](CC(C)C)NC(=O)[C@@H](NC(=O)[C@H](CO)NC(=O)[C@H](Cc1ccc(O)cc1)NC(=O)[C@H](CC(=O)O)NC(=O)[C@H](CO)NC(=O)[C@@H](NC(=O)[C@H](Cc1ccccc1)NC(=O)[C@@H](NC(=O)CNC(=O)[C@H](CCC(=O)O)NC(=O)C(C)(C)NC(=O)[C@@H](N)Cc1ccc(O)cc1)[C@@H](C)O)[C@@H](C)O)[C@@H](C)CC)C(=O)N[C@@H](CCC(=O)O)C(=O)N[C@@H](Cc1c[nH]c2ccccc12)C(=O)N[C@@H](CC(C)C)C(=O)N[C@@H](CC(C)C)C(=O)N[C@@H](C)C(=O)NCC(=O)NCC(=O)N1CCC[C@H]1C(=O)N[C@@H](CO)C(=O)N[C@@H](CO)C(=O)NCC(=O)N[C@@H](C)C(=O)N1CCC[C@H]1C(=O)N1CCC[C@H]1C(=O)N1CCC[C@H]1C(=O)N[C@@H](CO)C(=O)O [Compound No. 29] (H-Y[Aib]EGTFTSDYSILLEK([εLys-εLys-γGlu-C18 diacid])QAAQEFIEWLLAGGPSSGAPPPS-OH) | 0.26** kg/L |  |
| CC[C@H](C)[C@H](NC(=O)[C@H](Cc1ccccc1)NC(=O)[C@H](CCC(=O)O)NC(=O)[C@H](CCCNC(=N)N)NC(=O)[C@H](C)NC(=O)[C@H](C)NC(=O)[C@H](CCC(N)=O)NC(=O)[C@H](CCCCNC(=O)COCCOCCNC(=O)COCCOCCNC(=O)CC[C@H](NC(=O)CCCCCCCCCCCCCCCCC(=O)O)C(=O)O)NC(=O)[C@H](CCC(=O)O)NC(=O)[C@H](CC(C)C)NC(=O)[C@H](CC(C)C)NC(=O)[C@@H](NC(=O)[C@H](CO)NC(=O)[C@H](Cc1ccc(O)cc1)NC(=O)[C@H](CC(=O)O)NC(=O)[C@H](CO)NC(=O)[C@@H](NC(=O)[C@H](Cc1ccccc1)NC(=O)[C@@H](NC(=O)CNC(=O)[C@H](CCC(=O)O)NC(=O)C(C)(C)NC(=O)[C@@H](N)Cc1ccc(O)cc1)[C@@H](C)O)[C@@H](C)O)[C@@H](C)CC)C(=O)N[C@@H](CCC(=O)O)C(=O)N[C@@H](Cc1c[nH]c2ccccc12)C(=O)N[C@@H](CC(C)C)C(=O)N[C@@H](CC(C)C)C(=O)N[C@@H](C)C(=O)NCC(=O)NCC(=O)N1CCC[C@H]1C(=O)N[C@@H](CO)C(=O)N[C@@H](CO)C(=O)NCC(=O)N[C@@H](C)C(=O)N1CCC[C@H]1C(=O)N1CCC[C@H]1C(=O)N1CCC[C@H]1C(=O)N[C@@H](CO)C(=O)O [Compound No. 32] (H-Y[Aib]EGTFTSDYSILLEK([AEEA-AEEA-γGlu-C18 diacid])QAAREFIEWLLAGGPSSGAPPPS-OH) | 0.45* kg/L |  |
| CC[C@H](C)[C@H](NC(=O)[C@H](Cc1ccccc1)NC(=O)[C@H](CCC(=O)O)NC(=O)[C@H](CCCNC(=N)N)NC(=O)[C@H](C)NC(=O)[C@H](C)NC(=O)[C@H](CCC(N)=O)NC(=O)[C@H](CCC(=O)O)NC(=O)[C@H](CCC(=O)O)NC(=O)[C@H](CC(C)C)NC(=O)[C@H](CC(C)C)NC(=O)[C@H](CCCCNC(=O)[C@@H](N)CCCCNC(=O)[C@@H](N)CCCCNC(=O)CC[C@H](NC(=O)CCCCCCCCCCCCCCCCC(=O)O)C(=O)O)NC(=O)[C@H](CO)NC(=O)[C@H](Cc1ccc(O)cc1)NC(=O)[C@H](CC(=O)O)NC(=O)[C@H](CO)NC(=O)[C@@H](NC(=O)[C@H](Cc1ccccc1)NC(=O)[C@@H](NC(=O)CNC(=O)[C@H](CCC(=O)O)NC(=O)C(C)(C)NC(=O)[C@@H](N)Cc1ccc(O)cc1)[C@@H](C)O)[C@@H](C)O)C(=O)N[C@@H](CCC(=O)O)C(=O)N[C@@H](Cc1c[nH]c2ccccc12)C(=O)N[C@@H](CC(C)C)C(=O)N[C@@H](CC(C)C)C(=O)N[C@@H](C)C(=O)NCC(=O)NCC(=O)N1CCC[C@H]1C(=O)N[C@@H](CO)C(=O)N[C@@H](CO)C(=O)NCC(=O)N[C@@H](C)C(=O)N1CCC[C@H]1C(=O)N1CCC[C@H]1C(=O)N1CCC[C@H]1C(=O)N[C@@H](CO)C(=O)O [Compound No. 40] | 0.48 kg/L | 27.0 kg·h/L |
